# Experimental data taken from PMC5128878 (Scientific Reports, 2016).
# “And” between values parts separate entries of the source, which are not always exact repeats. Equal values may be shown once. Read-outs that look alike come from different tables or passages of the source.
# Key:
# α4β2 nAChR = target: T1, α4β2 nAChR (Rattus norvegicus, UniProt P09483+P12390); test: cell-based; type: cell-based; settings: for IC50: IC50 (95% CI), ACh 10 μM
# T1 construct: expressed in transfected cells; host or cells: Xenopus laevis oocytes injected with cRNA
# T1 sequence (P09483 31-630): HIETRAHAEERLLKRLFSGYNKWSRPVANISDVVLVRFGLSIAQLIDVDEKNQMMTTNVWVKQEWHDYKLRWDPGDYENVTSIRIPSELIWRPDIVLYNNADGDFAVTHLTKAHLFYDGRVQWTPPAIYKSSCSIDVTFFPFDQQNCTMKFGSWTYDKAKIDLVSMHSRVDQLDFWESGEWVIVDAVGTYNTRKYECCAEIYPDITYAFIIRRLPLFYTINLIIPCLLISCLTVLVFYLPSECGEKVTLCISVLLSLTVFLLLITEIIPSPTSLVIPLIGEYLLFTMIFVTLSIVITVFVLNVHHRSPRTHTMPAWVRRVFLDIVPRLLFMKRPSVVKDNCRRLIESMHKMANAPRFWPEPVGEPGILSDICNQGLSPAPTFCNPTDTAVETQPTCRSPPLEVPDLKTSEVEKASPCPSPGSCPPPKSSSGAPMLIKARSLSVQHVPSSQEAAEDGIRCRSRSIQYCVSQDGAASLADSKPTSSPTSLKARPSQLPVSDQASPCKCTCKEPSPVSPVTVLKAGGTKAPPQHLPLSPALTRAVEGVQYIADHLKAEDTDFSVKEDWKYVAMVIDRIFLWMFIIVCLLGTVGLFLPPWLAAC
# T1 sequence (P12390 25-500): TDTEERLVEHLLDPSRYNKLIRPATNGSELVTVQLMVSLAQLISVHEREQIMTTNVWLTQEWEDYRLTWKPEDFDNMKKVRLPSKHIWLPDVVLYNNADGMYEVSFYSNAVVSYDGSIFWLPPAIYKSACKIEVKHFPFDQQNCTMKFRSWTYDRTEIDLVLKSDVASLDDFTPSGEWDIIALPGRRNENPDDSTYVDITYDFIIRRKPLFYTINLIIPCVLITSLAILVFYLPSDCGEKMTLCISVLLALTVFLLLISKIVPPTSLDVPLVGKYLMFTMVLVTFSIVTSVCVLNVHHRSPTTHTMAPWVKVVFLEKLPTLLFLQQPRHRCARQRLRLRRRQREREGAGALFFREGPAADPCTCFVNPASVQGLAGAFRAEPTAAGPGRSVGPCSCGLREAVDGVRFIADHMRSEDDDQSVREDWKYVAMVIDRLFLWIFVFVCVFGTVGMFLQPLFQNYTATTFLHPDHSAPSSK
# Protocol: (§1) cDNA clones of rat neuronal nAChR subunits (α3, α4, β2 and β4) and mouse muscle subunits (α1, β1, γ and δ) were from the Salk Institute for Biological Studies (Professor Stephen Heinemann). The human α7 and RIC-3 cDNAs were provided by Professor David Sattelle (University College London).
# (§2) Oocytes isolated from mature female Xenopus laevis were supplied by the European Xenopus Resource Centre, University of Portsmouth, UK. Oocytes were treated with collagenase (0.5 mg/ml, Sigma type 1 A) in Ca^2+-free solution (96 mM NaCl, 2 mM KCl, 1 mM MgCl2, 5 mM HEPES, 2.5 mM Na-pyruvate, 100 U/mL penicillin, 0.1 mg/mL streptomycin, pH 7.5) with shaking at 19 °C to defolliculate and remove the connective tissue surrounding the cells. After separation, oocytes were washed 7 times with modified Barth’s solution (96 mM NaCl, 2 mM KCl, 1.8 mM CaCl2, 1 mM MgCl2, 5 mM HEPES, 2.5 mM Na-pyruvate, 0.5 mM theophylline, 50 μg/mL gentamicin, pH 7.5) and kept at 19 °C in the same solution.
# (§3) Healthy oocytes were injected with cRNA using a Nano-liter Injector (World Precision Instruments Inc, USA). Mixtures of nAChR subunit cRNAs were injected as follows; for heteromeric rat neuronal receptors a 1:1 ratio of α:β at 200 ng/μL; for mouse embryonic muscle a 1:1:1:1 ratio of α:β:γ:δ at 25 ng/μL; human α7 at 100 ng/μL was mixed with RIC-3 at 30 ng/μL. Each oocyte was injected with 50 nL of RNA solution. Injected oocytes were saved in Barth’s solution at 19 °C for two to three days for expression of the target protein. During this time oocytes were regularly checked to remove unhealthy ones.
# (§4) Electrophysiological recordings were taken from nAChR-expressing oocytes by two-electrode voltage clamp using a Geneclamp 500 voltage clamp amplifier (Axon instruments, USA). An oocyte was placed in the perfusion chamber using a plastic Pasteur pipette and the bath was perfused (~5 mL/min) with fresh Frog Ringer solution (96 mM NaCl, 2 mM KCl, 1.8 mM CaCl2 and 5 mM HEPES, pH 7.5). Microelectrodes were pulled from borosilicate glass capillaries (Harvard GC150TF-10) using a programmable micropipette puller (Sutter P97, USA), and they had resistances between 0.5 and 2.5 MΩ when filled with 3 M KCl. The oocyte was voltage-clamped at holding potentials (VH) between −60 and −100 mV. […] Currents were recorded to a PC via a digidata 1200 analog-to-digital converter (Axon Instuments, USA) using WinEDR v3.2.6 Software (Dr John Dempster, University of Strathclyde, UK).
# (§5) Graphpad Prism 6 was used for data analysis, graph plotting and curve fitting. All plotted points are the mean ± SEM obtained from 4–20 oocytes.
# α4β2(V253F) nAChR = target: T2, α4β2(V253F) nAChR (Rattus norvegicus, UniProt P09483+P12390, V277F); test: Two-electrode voltage clamp of ACh currents, α4β2(V253F) nAChRs expressed in Xenopus oocytes; type: cell-based; settings: for IC50: α4β2(V253F), ACh 10 μM
# T2 construct: expressed in transfected cells; host or cells: Xenopus laevis oocytes injected with cRNA
# T2 sequence (P09483 31-630, stated change not applied): as the sequence (P09483 31-630) above
# T2 sequence (P12390 25-500 V277F): as the sequence (P12390 25-500) above, with V253F counted along it
# Protocol: as §1, §2, §3, §4, §5
# α4β4 nAChR = target: T3, α4β4 nAChR (Rattus norvegicus, UniProt P09483+P12392); test: cell-based; type: cell-based; settings: for IC50: IC50 (95% CI), ACh 10 μM
# T3 construct: expressed in transfected cells; host or cells: Xenopus laevis oocytes injected with cRNA
# T3 sequence (P09483 31-630): as the sequence (P09483 31-630) above
# T3 sequence (P12392 21-495): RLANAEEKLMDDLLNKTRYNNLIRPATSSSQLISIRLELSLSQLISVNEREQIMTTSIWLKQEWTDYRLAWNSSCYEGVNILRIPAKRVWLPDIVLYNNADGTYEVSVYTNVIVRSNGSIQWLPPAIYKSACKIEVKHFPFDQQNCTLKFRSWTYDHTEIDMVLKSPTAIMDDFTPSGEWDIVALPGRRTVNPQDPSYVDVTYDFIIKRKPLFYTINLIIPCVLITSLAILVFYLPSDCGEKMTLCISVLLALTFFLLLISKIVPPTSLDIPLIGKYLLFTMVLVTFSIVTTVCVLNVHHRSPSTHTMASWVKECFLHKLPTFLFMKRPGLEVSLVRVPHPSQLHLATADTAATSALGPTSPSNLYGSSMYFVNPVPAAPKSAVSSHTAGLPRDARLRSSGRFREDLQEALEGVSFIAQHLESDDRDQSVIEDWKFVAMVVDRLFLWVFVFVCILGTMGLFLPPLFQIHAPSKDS
# Protocol: as §2, §3, §4, §5
# α3β4 nAChR = target: T4, α3β4 nAChR (Rattus norvegicus, UniProt P04757+P12392); test: cell-based
# T4 construct: expressed in transfected cells; host or cells: Xenopus laevis oocytes injected with cRNA
# T4 sequence (P04757 26-499): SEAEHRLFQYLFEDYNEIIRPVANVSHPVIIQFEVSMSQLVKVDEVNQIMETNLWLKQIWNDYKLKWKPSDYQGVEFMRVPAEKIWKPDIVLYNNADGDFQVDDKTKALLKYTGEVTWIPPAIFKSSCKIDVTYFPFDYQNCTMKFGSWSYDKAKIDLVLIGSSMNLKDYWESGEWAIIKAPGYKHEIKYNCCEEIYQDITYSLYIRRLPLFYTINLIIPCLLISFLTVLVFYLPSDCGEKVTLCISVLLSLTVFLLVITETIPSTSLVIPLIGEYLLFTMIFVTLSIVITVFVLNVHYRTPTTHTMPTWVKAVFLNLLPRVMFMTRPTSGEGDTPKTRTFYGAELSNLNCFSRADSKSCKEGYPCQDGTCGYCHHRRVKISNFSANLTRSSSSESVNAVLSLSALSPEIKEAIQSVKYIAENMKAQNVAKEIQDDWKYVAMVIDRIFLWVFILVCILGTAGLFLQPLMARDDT
# T4 sequence (P12392 21-495): as the sequence (P12392 21-495) above
# Protocol: as §2, §3, §4, §5
# α3β4(F255V) nAChR = target: T5, α3β4(F255V) nAChR (Rattus norvegicus, UniProt P04757+P12392, F275V); test: Two-electrode voltage clamp of ACh currents, α3β4(F255V) nAChRs expressed in Xenopus oocytes; type: cell-based; settings: for IC50: α3β4(F255V), ACh 100 μM
# T5 construct: expressed in transfected cells; host or cells: Xenopus laevis oocytes injected with cRNA
# T5 sequence (P04757 26-499): as the sequence (P04757 26-499) above
# T5 sequence (P12392 21-495 F275V): as the sequence (P12392 21-495) above, with F255V counted along it
# Protocol: as §1, §2, §3, §4, §5
# α7 nAChR = target: T6, α7 nAChR (Homo sapiens, UniProt P36544); test: Two-electrode voltage clamp of ACh currents, α7 nAChRs (with RIC-3) expressed in Xenopus oocytes; type: cell-based; settings: for IC50: IC50 (95% CI), ACh 100 μM
# T6 construct: expressed in transfected cells; host or cells: Xenopus laevis oocytes injected with cRNA
# T6 sequence (P36544 23-502): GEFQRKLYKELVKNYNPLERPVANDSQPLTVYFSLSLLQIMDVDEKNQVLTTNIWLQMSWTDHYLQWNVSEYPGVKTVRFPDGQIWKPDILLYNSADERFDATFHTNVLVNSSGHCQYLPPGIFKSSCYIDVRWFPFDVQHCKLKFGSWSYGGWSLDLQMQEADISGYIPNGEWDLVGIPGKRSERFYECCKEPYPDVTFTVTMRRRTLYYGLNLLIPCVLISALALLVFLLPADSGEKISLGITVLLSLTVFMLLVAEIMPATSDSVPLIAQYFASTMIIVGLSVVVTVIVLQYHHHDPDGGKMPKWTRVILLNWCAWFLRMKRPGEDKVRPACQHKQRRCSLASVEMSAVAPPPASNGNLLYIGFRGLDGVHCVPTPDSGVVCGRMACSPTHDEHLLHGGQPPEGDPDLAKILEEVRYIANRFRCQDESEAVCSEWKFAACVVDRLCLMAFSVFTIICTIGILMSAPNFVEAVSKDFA
# Protocol: as §2, §3, §4, §5
# α1β1γδ nAChR = target: T7, α1β1γδ nAChR (Mus musculus, UniProt P02716+P04756+P04760+P09690); test: cell-based; type: cell-based; settings: α1β1γδ; for IC50: IC50 (95% CI), ACh 10 μM
# T7 construct: expressed in transfected cells; host or cells: Xenopus laevis oocytes injected with cRNA
# T7 sequence (P04756 21-457): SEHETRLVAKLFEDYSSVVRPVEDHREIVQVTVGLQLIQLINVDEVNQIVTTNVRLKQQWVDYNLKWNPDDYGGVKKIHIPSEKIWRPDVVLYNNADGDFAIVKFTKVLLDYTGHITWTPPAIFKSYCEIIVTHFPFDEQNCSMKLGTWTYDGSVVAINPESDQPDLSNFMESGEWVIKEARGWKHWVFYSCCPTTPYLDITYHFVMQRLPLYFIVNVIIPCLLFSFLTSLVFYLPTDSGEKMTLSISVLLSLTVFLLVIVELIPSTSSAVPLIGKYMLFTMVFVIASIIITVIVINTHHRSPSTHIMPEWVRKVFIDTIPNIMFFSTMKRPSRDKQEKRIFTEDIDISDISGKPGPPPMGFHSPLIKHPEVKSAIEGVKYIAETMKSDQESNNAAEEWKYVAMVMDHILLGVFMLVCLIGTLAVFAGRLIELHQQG
# T7 sequence (P09690 24-501): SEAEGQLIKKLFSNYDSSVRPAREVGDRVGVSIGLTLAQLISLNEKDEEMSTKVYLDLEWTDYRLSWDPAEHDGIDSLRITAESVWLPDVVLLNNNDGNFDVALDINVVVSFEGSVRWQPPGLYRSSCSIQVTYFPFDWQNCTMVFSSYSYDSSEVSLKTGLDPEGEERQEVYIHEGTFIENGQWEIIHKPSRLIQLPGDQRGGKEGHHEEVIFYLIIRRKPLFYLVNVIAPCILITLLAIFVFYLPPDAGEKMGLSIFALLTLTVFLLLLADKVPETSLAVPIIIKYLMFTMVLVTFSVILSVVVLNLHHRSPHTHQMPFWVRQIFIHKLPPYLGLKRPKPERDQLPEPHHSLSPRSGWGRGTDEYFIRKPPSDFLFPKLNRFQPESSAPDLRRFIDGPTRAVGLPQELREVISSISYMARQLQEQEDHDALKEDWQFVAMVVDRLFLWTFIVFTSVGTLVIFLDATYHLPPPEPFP
# T7 sequence (P04760 23-519): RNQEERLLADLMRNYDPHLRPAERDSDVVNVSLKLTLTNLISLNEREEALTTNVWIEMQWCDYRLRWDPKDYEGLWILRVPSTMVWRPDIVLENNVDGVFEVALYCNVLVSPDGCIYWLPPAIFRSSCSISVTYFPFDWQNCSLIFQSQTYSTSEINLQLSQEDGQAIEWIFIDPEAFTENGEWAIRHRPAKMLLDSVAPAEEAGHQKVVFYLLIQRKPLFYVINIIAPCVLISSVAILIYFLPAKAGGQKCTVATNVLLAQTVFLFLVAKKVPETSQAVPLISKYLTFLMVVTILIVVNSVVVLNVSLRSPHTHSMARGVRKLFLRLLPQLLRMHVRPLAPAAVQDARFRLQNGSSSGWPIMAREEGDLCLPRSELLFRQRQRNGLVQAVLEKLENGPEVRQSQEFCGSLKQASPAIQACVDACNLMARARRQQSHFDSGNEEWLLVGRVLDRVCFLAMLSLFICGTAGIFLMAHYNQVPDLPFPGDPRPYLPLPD
# T7 sequence (P02716 25-520): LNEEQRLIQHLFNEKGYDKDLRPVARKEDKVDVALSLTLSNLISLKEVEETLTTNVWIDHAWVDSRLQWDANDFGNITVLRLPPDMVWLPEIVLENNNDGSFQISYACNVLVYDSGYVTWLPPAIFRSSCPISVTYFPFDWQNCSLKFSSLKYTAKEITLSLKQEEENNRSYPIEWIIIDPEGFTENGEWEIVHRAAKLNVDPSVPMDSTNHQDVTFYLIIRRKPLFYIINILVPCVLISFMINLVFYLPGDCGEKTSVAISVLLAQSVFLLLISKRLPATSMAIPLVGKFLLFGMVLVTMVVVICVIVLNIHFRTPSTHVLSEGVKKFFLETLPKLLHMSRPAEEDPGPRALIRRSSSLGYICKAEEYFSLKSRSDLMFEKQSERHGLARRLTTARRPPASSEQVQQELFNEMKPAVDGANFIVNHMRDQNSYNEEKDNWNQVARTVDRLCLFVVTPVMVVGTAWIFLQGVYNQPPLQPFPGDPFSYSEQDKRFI
# Protocol: as §2, §3, §4, §5
# [1] = tested on: human muscle-type nAChRs in TE671 cells; test: Muscle-type nAChRs in TE671 cells (previous study); type: cell-based; settings: previous study compared with present oocyte data ref 8
# nAChRs = test: Two-electrode voltage clamp of Xenopus oocytes expressing nAChRs, statements across tested subtypes; type: cell-based
# Protocol: as §1, §2, §3, §4, §5
# α3β2 nAChR = α3β2 nAChR (Rattus norvegicus, UniProt P04757+P12390); test: Two-electrode voltage clamp of ACh currents, α3β2 nAChRs expressed in Xenopus oocytes; settings: for IC50: IC50 (95% CI), ACh 30 μM
# Sequence of α3β2 nAChR (P04757 26-499): as the sequence (P04757 26-499) above
# Sequence of α3β2 nAChR (P12390 25-500): as the sequence (P12390 25-500) above
# Protocol: as §2, §3, §4, §5
# [2] = VH −60 mV, late current (1 min), read-out: IC50 (95% CI), Late
# [3] = VH −60 mV, peak current, read-out: IC50 (95% CI), Peak
# [4] = VH −80 mV, late current (1 min), read-out: IC50 (95% CI), Late
# [5] = VH −80 mV, peak current, read-out: IC50 (95% CI), Peak
# [6] = VH −100 mV, late current (1 min), read-out: IC50 (95% CI), Late
# [7] = VH −100 mV, peak current, read-out: IC50 (95% CI), Peak
smiles,measurement,setting,value
CCCC(=O)N[C@@H](Cc1ccc(O)cc1)C(=O)NCCCCCCCCCCCCN [PhTX-12],IC50,"α4β2 nAChR; Late, α4β2, VH −60 mV, late current (1 min)",230 nM
same,IC50,"α4β2 nAChR; Late, α4β2, VH −80 mV, late current (1 min)",280 nM
same,IC50,"α4β2 nAChR; Late, α4β2, VH −100 mV, late current (1 min)",44 nM
same,IC50,"α4β2 nAChR; Peak, α4β2, VH −60 mV, peak current",3870 nM
same,IC50,"α4β2 nAChR; Peak, α4β2, VH −80 mV, peak current",2170 nM
same,IC50,"α4β2 nAChR; Peak, α4β2, VH −100 mV, peak current",1640 nM
same,times less sensitive than the most sensitive subtype,"α4β2 nAChR; α4β2 vs α3β4 (for PhTX-12: α1β1γδ along with α3β4), late current IC50, −80 mV",3 times
same,reduction in late current IC50 as compared to α4β2,"α4β2(V253F) nAChR; α4β2(V253F) vs α4β2, late current, −80 mV",no significant differences
same,change in peak current IC50 as compared to α4β2,"α4β2(V253F) nAChR; α4β2(V253F) vs α4β2, peak current, −80 mV",no significant differences
same,IC50,α4β2(V253F) nAChR; [2],410 nM
same,IC50,α4β2(V253F) nAChR; [3],2220 nM
same,IC50,α4β2(V253F) nAChR; [4],300 nM
same,IC50,α4β2(V253F) nAChR; [5],4050 nM
same,IC50,α4β2(V253F) nAChR; [6],190 nM
same,IC50,α4β2(V253F) nAChR; [7],3480 nM
same,IC50,"α4β4 nAChR; Late, α4β4, VH −60 mV, late current (1 min)",250 nM
same,IC50,"α4β4 nAChR; Late, α4β4, VH −80 mV, late current (1 min)",290 nM
same,IC50,"α4β4 nAChR; Late, α4β4, VH −100 mV, late current (1 min)",190 nM
same,IC50,"α4β4 nAChR; Peak, α4β4, VH −60 mV, peak current",1210 nM
same,IC50,"α4β4 nAChR; Peak, α4β4, VH −80 mV, peak current",1650 nM
same,IC50,"α4β4 nAChR; Peak, α4β4, VH −100 mV, peak current",2770 nM
same,"voltage dependence of inhibition, late current","α4β4 nAChR; α4β4, late current IC50 values, VH −60 to −100 mV",voltage-independent
same,times less sensitive than the most sensitive subtype,"α4β4 nAChR; α4β4 vs α3β4 (for PhTX-12: α1β1γδ along with α3β4), late current IC50, −80 mV",3 times
same,IC50,"α3β4 nAChR; IC50 (95% CI), Late, α3β4, VH −60 mV, late current (1 min), ACh 100 μM",110 nM
same,IC50,"α3β4 nAChR; IC50 (95% CI), Late, α3β4, VH −80 mV, late current (1 min), ACh 100 μM",110 nM
same,IC50,"α3β4 nAChR; IC50 (95% CI), Late, α3β4, VH −100 mV, late current (1 min), ACh 100 μM",27 nM
same,IC50,"α3β4 nAChR; IC50 (95% CI), Peak, α3β4, VH −60 mV, peak current, ACh 100 μM",3090 nM
same,IC50,"α3β4 nAChR; IC50 (95% CI), Peak, α3β4, VH −80 mV, peak current, ACh 100 μM",2620 nM
same,IC50,"α3β4 nAChR; IC50 (95% CI), Peak, α3β4, VH −100 mV, peak current, ACh 100 μM",2030 nM
same,IC50,"α3β4 nAChR; IC50, α3β4, late current, −80 mV",100 nM
same,surmountability of late current inhibition,"α3β4 nAChR; α3β4, 0.3 μM toxin, late current, −80 mV",insurmountable
same,surmountability of peak current inhibition by higher ACh concentrations,"α3β4 nAChR; α3β4, 10 μM toxin, peak current, −80 mV",surmountable
same,peak current during the first ACh application after removal of toxin (6 min),"α3β4 nAChR; α3β4, after 10 μM toxin, mean of all cells, −80 mV, not significantly greater than control (p = 0.217)",119.4 % control response
same,increase in late current IC50 as compared to α3β4,"α3β4(F255V) nAChR; α3β4(F255V) vs α3β4, late current, −80 mV",3.3 fold
same,reduction in peak current IC50 as compared to α3β4,"α3β4(F255V) nAChR; α3β4(F255V) vs α3β4, peak current, −80 mV",no difference
same,IC50,α3β4(F255V) nAChR; [2],520 nM
same,IC50,α3β4(F255V) nAChR; [3],1630 nM
same,IC50,α3β4(F255V) nAChR; [4],360 nM
same,IC50,α3β4(F255V) nAChR; [5],2780 nM
same,IC50,α3β4(F255V) nAChR; [6],68 nM
same,IC50,α3β4(F255V) nAChR; [7],1050 nM
same,IC50,"α7 nAChR; Late, α7, VH −60 mV, based on the area under the current trace (no stable late current)",8320 nM
same,IC50,"α7 nAChR; Late, α7, VH −80 mV, based on the area under the current trace (no stable late current)",4900 nM and 4920 nM
same,IC50,"α7 nAChR; Late, α7, VH −100 mV, based on the area under the current trace (no stable late current)",5020 nM
same,IC50,"α7 nAChR; Peak, α7, VH −60 mV, peak current",18700 nM
same,IC50,"α7 nAChR; Peak, α7, VH −80 mV, peak current",11100 nM
same,IC50,"α7 nAChR; Peak, α7, VH −100 mV, peak current",12100 nM
same,recovery of the late current after 6 min,"α7 nAChR; α7, 10 μM toxin, −80 mV",complete
same,times less sensitive than the most sensitive subtype,"α7 nAChR; α7 vs α3β4 (for PhTX-12: α1β1γδ along with α3β4), late current IC50, −80 mV",49 times
same,IC50,"α1β1γδ nAChR; Late, VH −60 mV, late current (1 min)",70 nM
same,IC50,"α1β1γδ nAChR; Late, VH −80 mV, late current (1 min)",100 nM
same,IC50,"α1β1γδ nAChR; Late, VH −100 mV, late current (1 min)",71 nM
same,IC50,"α1β1γδ nAChR; Peak, VH −60 mV, peak current",3160 nM
same,IC50,"α1β1γδ nAChR; Peak, VH −80 mV, peak current",6180 nM
same,IC50,"α1β1γδ nAChR; Peak, VH −100 mV, peak current",5020 nM
same,surmountability of late current inhibition,"α1β1γδ nAChR; 0.3 μM toxin, late current, −80 mV",insurmountable
same,surmountability of peak current inhibition by increasing ACh concentrations,"α1β1γδ nAChR; 10 μM toxin, peak current, −80 mV",surmountable
same,"voltage dependence of inhibition, late current","α1β1γδ nAChR; late current IC50 values, VH −60 to −100 mV",voltage-independent
same,lower potency at human muscle-type nAChRs in TE671 cells than in the present study,[1],11 fold
same,effect on membrane current when applied alone,"nAChRs; 100 μM applied alone, VH = −80 mV, oocytes expressing nAChRs",did not produce any effect on membrane current
same,voltage dependence of inhibition of peak current,"nAChRs; all nAChRs, peak current, VH −60 to −100 mV",voltage-independent for all nAChRs except for homomeric α7
same,reversibility of inhibition of nAChRs,"nAChRs; all subunit combinations, 10 μM toxin, −80 mV",fully or almost reversible after 6 min
same,IC50,"α3β2 nAChR; Late, α3β2, VH −60 mV, late current (1 min)",3200 nM
same,IC50,"α3β2 nAChR; Late, α3β2, VH −80 mV, late current (1 min)",2570 nM
same,IC50,"α3β2 nAChR; Late, α3β2, VH −100 mV, late current (1 min)",1380 nM
same,IC50,"α3β2 nAChR; Peak, α3β2, VH −60 mV, peak current",65200 nM
same,IC50,"α3β2 nAChR; Peak, α3β2, VH −80 mV, peak current",60000 nM and 60600 nM
same,IC50,"α3β2 nAChR; Peak, α3β2, VH −100 mV, peak current",74400 nM
same,recovery of the late current after 6 min,"α3β2 nAChR; α3β2, 10 μM toxin, −80 mV",complete
same,recovery of the peak current after 6 min,"α3β2 nAChR; α3β2, 10 μM toxin, −80 mV",complete
same,times less sensitive than the most sensitive subtype,"α3β2 nAChR; α3β2 vs α3β4 (for PhTX-12: α1β1γδ along with α3β4), late current IC50, −80 mV",26 times
